From patent US8748480B2, “Methods for treating opioid tolerance” (priority 2005, dated 2014)
Read-outs that look alike come from different tables or passages of the source. No end group written: not given here.

Key:
[1] = system: differentiated HL-60 neutrophil; test: Cytosolic Ca2+ in agonist-activated neutrophils (fura-2); format: cell-based
Description: FIG. 4 is a bar graph depicting the peak cytosolic Ca^2+ concentrations for neutrophils activated with fMLP or ATP agonists in the presence or absence of 10 μM NSC119910. fMLP, n=3; ATP, n=2.
Gβγ-regulated activities of PI3Kγ and PLC-β2/-β3 are important in chemoattractant-induced responses and inflammation. PI3Kγ is involved in the production of TI-IgλL and mice deficient in PI3Kγ, lack neutrophil migration (Li, et al, (2000) Science 287:1046-9). The PLC pathway is involved in down-modulation of chemotaxis and in hyperinflammatory conditions (Li, et al. (2000) supra). Therefore, it was determined whether NSC119910 could inhibit the Gβγ/PLC interaction and block PLC activation.
Ca^2+ fluxes were measured using two 35 mL cultures of differentiated HL-60 neutrophil cultures (0.2×10^6 cells/mL). Cells were cultured for three days with in DMSO (1.2%), washed in HSS and resuspended in 2 mL HBSS at a concentration of 7×10^6 cells/mL. Addition of DMSO to the growth medium induces differentiation of these cells into morphologically and functionally mature neutrophils (Collins, et al. (1978) Proc. Natl. Acad. Sci. USA 75:2458; Collins, et al., (1979) J. Exp. Med. 149:969). Neutrophils were preloaded with fura-2 (1 μM), a fluorescent Ca^2+-sensitive indicator (Suh, et al., (1996) J. Biol. Chem. 271:32753), for 45 minutes, washed with HBSS and resuspended in 2 mL of indicator-free HBSS. An 140 μL aliquote of cells was added to a total of 2 mL HBSS. Fluorescence ratios were taken by dual excitation at 340 and 380 nm and emission at 510 nm. After a stable baseline was established, either DMSO or NSC119910 was added and incubated for 5 minutes. Subsequently, either fMLP or ATP agonists were added to activate release of Ca^2+ from intracellular stores.

[2] = system: fMLP-dependent ERK activation; test: fMLP-dependent ERK activation; format: cell-based
[3] = target: T1, Gβγ (protein interaction site of Gβ) (Rattus norvegicus, UniProt P54311); test: Phage ELISA: small molecules competing with SIGK-phage binding to immobilized biotinylated Gβγ
T1 construct: made in house; host or cells: Sf9 insect cells (baculovirus), co-expressed with BirA and (His)6-Gαi1
Description: Exemplary compounds of the present invention were initially selected from a computational screen to identify ligands that bind to the novel protein interaction site of Gβ. The computational screen involved using SYBYL molecular modeling software to model the protein interaction site of Gβ as determined in the X-ray structure disclosed herein. The computational docking screen was performed with the National Cancer Institute 1900 compound library wherein the compounds were tested for docking to the protein interaction site of Gβ using FLEXX™ (Tripos, Inc., St. Louis, Mo.) for docking and CSCORE™ (Tripos, Inc.) to evaluate the energetics and fitness of the docked structure. Algorithm-dependent lists of compounds, predicted to interact with the protein interaction site of Gβ and the structural model of the interaction, were generated. Selected compounds were subsequently analyzed in the phage ELISA binding assay disclosed herein to assess whether these compounds could bind to the protein interaction site of Gβ and interfere with protein interactions at this surface.
Wild-type Gβ1 and Gβ1 mutants were made in the baculovirus vector PDW464 which encodes a biotinylation site at a lysine upstream of the amino terminus of Gβ1 (Goubaeva, et al. (2003) supra). Mutants were generated by overlap extension PCR using standard protocols. The wild-type and mutant Gβ1 constructs consisted of a 20 amino acid biotin acceptor peptide (BAP) sequence fused in-frame with the amino-terminus of rat Gβ1 subunit. When coexpressed with biotin holoenzyme synthetase (BirA) in Sf9 cells, the Gβ1 subunit becomes covalently biotinylated in vivo at the Specific lysine acceptor residue in the BAP.
Phage ELISA assays used to assess peptide binding to wild-type and mutant b-βγ were performed according to standard methods (Smrcka and Scott (2002) Methods Enzymol. 344:557-76). Briefly, 1 μg streptavidin was immobilized in the well of a […] overnight at 4° C. The wells were blocked with 100 μL of 2% bovine serum albumin (BSA) in Tris-buffered saline (TBS) for 1 hour at 4° C. followed by three washes of 1×TBS/0.5% TWEEN®. […] The wells were washed, followed by the addition of 1×10^6 to 1×10^10 phage particles and incubated at 4° C. for 3 hours. The wells were then washed six times with TBS/0.5% TWEEN® followed by addition of 40 μL of 1:5000 dilution of anti-M13 antibody (Pharmacia, Uppsala, Sweden) and incubated at room temperature for 1 hour. The wells were washed, followed by the addition of 40 μL of (2,2′-Azino-bis(3-ethylbenzthiazoline)-6-sulfonic acid (ABTS) and the colorimetric reaction was monitored at 405 nm. Non-specific binding was subtracted for each reading.
A phage ELISA assay was used to determine whether small molecules identified in the computational screen could interact with the Gβγ protein interaction surface. […] The screen was based on a reduction in the optical density (OD) of wells containing Gβγ subunits and phage. […] Three background wells contained no βγ subunits.
As disclosed herein, biotinylated Gβγ subunits were immobilized on the surface of a 96-well plate coated with streptavidin, phage displaying Gβγ-binding peptides were subsequently added and binding in the presence and absence of test compounds detected with an anti-phage antibody.

[4] = target: Gβγ subunits (Rattus norvegicus, UniProt P54311); test: Gα subunit-Gβγ interaction (FIG. 2); format: binding
Description: FIG. 2 is a graph illustrating that NSC119910 binds to Gβγ and interferes with physiologically relevant protein interactions such as with the Gα subunit.
(§1) Fluorescein-labeled Gαi1 (Fαi1) was prepared in accordance with standard methods (Sarvazyan, et al. (1998) supra). Assays were used to determine peptide effects on Gα-Gβγ interactions included competition and dissociation assays (Ghosh, et al. (2003) supra). Briefly, for competition-based assays, 100 pM Fαi1 and indicated concentrations of peptides were added to 50 pM b-Gβ1γ2 immobilized on 10^5 beads per mL and incubated at room temperature for 30 minutes to reach equilibrium. The bead-associated fluorescence was then recorded in a BD Biosciences FACSCALIBUR™ flow cytometer. Data was corrected for background fluorescence and fit with a sigmoid dose response curve using Graph Pad Prism 4. To measure dissociation of Fαi1 from b-Gβ1γ2, 100 pM of Fαi1 was incubated with 50 pM immobilized b-Gβ1γ2 at room temperature for 15-20 minutes. The fluorescence of bound Fαi1 subunit was measured, followed by the addition of a 200-fold excess of unlabeled Gαi1 or peptides and the amount of Fαi1 remaining bound to the beads was measured at the indicated times.

[5] = system: PLC β; test: Phospholipase C-Gβγ interaction, PLC enzymatic activity (FIG. 3); format: biochemical; conditions: in vitro
Description: FIG. 3 is a graph illustrating the inhibition of phospholipase C-Gβγ interactions by NSC119910. Phospholipase enzymatic activity was determined using well-established methods (Ghosh and Smrcka (2003) Meth. Mol. Biol. 237:67-75).

[6] = system: Mice; test: 55° C. warm-water tail-flick test, intracerebroventricular injection; format: in vivo; conditions: 100 nmol NSC119910 i.c.v. with morphine
Description: Opioid receptors, μ, Δ, and κ, couple to Gi and Go proteins through α and βγ subunits, and regulate a number of signaling pathways. […] Mice were tested 20 minutes after the injection for an analgesic response in a 55° C. warm-water tail-flick test (Wells, et al. (2001) J. Pharmacol. Exp. Therapeut. 297:597-605).

[7] = system: PLC-β2; test: Purified PLC-β2 activation by purified βγ (FIG. 6); format: biochemical; conditions: purified PLC-β2 with purified βγ
Description: (§2) FIG. 6 is a bar graph illustrating inhibition of PLC-β2 and PLC-β3 activation in the presence of exemplary compounds of the instant invention.
(§3) The ability of NSC119910 analogs to selectively modulate activation PLC-β2 and -β3 was analyzed. In this assay, PLC-β2 and PLC-β3 were purified and PLC enzymatic activity was measured in the presence or absence of purified βγ and in the presence or absence of analog.

[8] = system: PLC-β3; test: Purified PLC-β3 activation by purified βγ (FIG. 6); format: biochemical; conditions: purified PLC-β3 with purified βγ
Description: as §2, §3

[9] = target: T2, Fαi1·b-Gβ1γ2 heterotrimer (Rattus norvegicus, UniProt P54311); test: Flow cytometry dissociation of Fαi1 from preformed heterotrimer with b-Gβ1γ2; format: binding; conditions: peptide added to preformed Fαi1·b-Gβ1γ2
T2 construct: made in house; host or cells: Sf9 insect cells (baculovirus) for b-Gβ1γ2
Description: as §1

[10] = system: PLC β2; conditions: cited from earlier work
[11] = system: PI3K; conditions: cited from earlier work
[12] = system: type I adenylyl cyclase; conditions: cited from earlier work
[13] = system: voltage-gated N-type Ca++ channel; conditions: cited from earlier work

Question: Which “Ca2+ mobilization” value [1] does the source give for O=C(O)c1cccc2cccc(-c3c4ccc(=O)c(O)c-4oc4c(O)c(O)ccc34)c12 [NSC119893] here?
Answer: block

Question: What about the “fMLP-dependent ERK activation” value [2] of the same compound?
Answer: without interfering

Question: Which IC50 [3] does the source give for O=C(O)C1CCCCC1c1c2ccc(=O)c(O)c-2oc2c(O)c(O)ccc12 (stereo not shown) [NSC119910] here?
Answer: 100 nM

Question: And the “interactions of Gα subunit with Gβγ subunits” value [4]?
Answer: blocked

Question: And the “PLC β-Gβγ interaction, enzymatic activity of PLC β” value [5]?
Answer: inhibited

Question: And the “Ca2+ mobilization” value [1]?
Answer: block

Question: And the “time taken for fluorescence to decline to half-peak values” ([1]; 10 μM compound, fMLP or ATP (FIG. 5))?
Answer: not substantially affected

Question: What about the “increase in [Ca2+]” value ([1]; ATP-stimulated neutrophils, 10 μM compound) of the same compound?
Answer: not significantly suppressed

Question: What about the “increase in cytosolic Ca2+” value ([1]; fMLP-stimulated neutrophils, 10 μM compound) of the same compound?
Answer: suppressed

Question: And the “shift to the left in morphine dose-response curve” value [6]?
Answer: 11 fold

Question: What about the “fMLP-dependent ERK activation” value [2] of the same compound?
Answer: without interfering

Question: For O=C(O)/C=C/c1c2ccc(=O)c(O)c-2oc2c(O)c(O)ccc12 [NSC119911], which PLC-β2 activation [7] is on record?
Answer: block PLC-β2 activation more effectively than PLC-β3 activation

Question: What about the “fMLP-dependent ERK activation” value [2] of the same compound?
Answer: do not interfere

Question: What does the source list for N[C@H]1CCc2cc(O)c(O)c(O)c2-c2ccc(O)c(=O)cc21 [NSC201400]?
Answer: IC50 ([3]; read-out: IC50): 100 nM; PLC-β3 activation [8]: selectively potentiated; fMLP-dependent ERK activation [2]: do not interfere

Question: With C[C@H](NC(=O)[C@H](CS)NC(=O)[C@@H](N)CO)C(=O)N[C@@H](CCCNC(=N)N)C(=O)N[C@@H](Cc1ccccc1)C(=O)N[C@@H](Cc1ccccc1)C(=O)NCC(=O)N[C@H](C(=O)N1CCC[C@H]1C(=O)NCC(=O)N[C@@H](CS)C(=O)N[C@H](C(=O)O)[C@@H](C)O)[C@@H](C)O [SCAR] as the compound, how does the “dissociation of a preformed heterotrimer” value [9] read?
Answer: could not promote dissociation

Question: Which “dissociation of a preformed heterotrimer” value [9] does the source give for CC[C@H](C)[C@H](NC(=O)[C@H](CC(N)=O)NC(=O)[C@H](CC(C)C)NC(=O)[C@H](C)NC(=O)[C@H](C)NC(=O)[C@H](CCCNC(=N)N)NC(=O)[C@@H](NC(=O)[C@@H](N)CO)[C@@H](C)CC)C(=O)N[C@@H](CC(C)C)C(=O)NCC(=O)N[C@@H](Cc1ccc(O)cc1)C(=O)N1CCC[C@H]1C(=O)N[C@@H](CC(=O)O)C(=O)N[C@@H](Cc1ccc(O)cc1)C(=O)N[C@@H](CC(=O)O)C(=O)O [SIRK(Lys4Ala)] here?
Answer: failed to accelerate heterotrimer dissociation

Question: What does the source list for CC[C@H](C)[C@H](NC(=O)[C@H](CC(N)=O)NC(=O)[C@H](CC(C)C)NC(=O)[C@H](C)NC(=O)[C@H](CCCCN)NC(=O)[C@H](CCCNC(=N)N)NC(=O)[C@@H](NC(=O)[C@@H](N)CO)[C@@H](C)CC)C(=O)N[C@@H](CC(C)C)C(=O)NCC(=O)N[C@@H](Cc1ccc(O)cc1)C(=O)N1CCC[C@H]1C(=O)N[C@@H](CC(=O)O)C(=O)N[C@@H](Cc1ccc(O)cc1)C(=O)N[C@@H](CC(=O)O)C(=O)O [SIRK]?
Answer: dissociation of a preformed heterotrimer [9]: promotes dissociation; IC50 ([10]; read-out: IC50 for inhibition of PLC β2 activation by Gβ1γ2): 5 µM; activation of PI3K [11]: blocked; Gβ1γ2 regulation of type I adenylyl cyclase [12]: little or no effect; Gβ1γ2 regulation of voltage-gated N-type Ca++ channel activity [13]: little or no effect

Question: Which “dissociation of a preformed heterotrimer” value [9] does the source give for SIRKALNILAYPDYD [SIRK(Gly10Ala)] here?
Answer: could still accelerate heterotrimer dissociation

Question: What about the “change of IC50 relative to wild-type SIRK peptide” value ([10]; inhibition of PLC β2 activation by Gβ1γ2) of the same compound?
Answer: 12 fold
